Like-named read-outs stand apart in the source and are kept apart here.
Tests used:
murine spleen cells = conditions: Infection and Immunity vol.66 no.1, 1998; cited from earlier work
human PBMC = experiment: ConA mitogen-stimulated proliferation of human PBMC ([3H]-thymidine incorporation); assay type: cell-based; conditions: for IC50: Experiment II, read-out: IC50 in inhibition of ConA induced cell proliferation of PBMC
Method: Blood specimens were obtained with consent from healthy human volunteers. Human peripheral blood mononuclear cells (PBMC) were isolated from heparinised whole blood by buoyant density centrifugation over Histopaque 1077 (Sigma, Poole, UK) at 600 g for 20 minutes. PBMC harvested from the ‘buffy’ layers were washed twice with RPMI 1640 medium and resuspended in CTCM. […] Human PBMC were incubated for 48 h at 37° C. in 5% CO2-air, followed by pulsing with 0.25 μCi [^3H]-thymidine (see above). After a further incubation of 24 h cells were harvested onto fibreglass filters and then counted in the presence of MicroScint-O with the Packard TopCount.
Concanavalin induced cell proliferation of human peripheral blood mononuclear cells (PBMC) was tracked, as described in I above, by a measurement of counts per minute using the scintillation counter. The inhibitory effect of an HSL compound being tested on cell proliferation was indicated by a reduction in counts per minute. […] Columns B, C and D represent different sources of human PBMC samples used.
Plots of counts per minute (cpm) against the concentration of the quorum sensing molecules and the vehicle are shown in FIG. 11.

CCCCCCCCCC(=O)CC(=O)N[C@H]1CCOC1=O [Example 6]
inhibition of ConA mitogen stimulated proliferation of murine spleen cells (murine spleen cells): inhibiting | effect of OdDHL alone on ConA induced hPBMC proliferation (human PBMC; 6.25 μM, alone): inactive | inhibition of ConA induced proliferation of human PBMC (cpm), in words (human PBMC; ConA 1 μg/ml): inhibited proliferation of human PBMC | IC50 (human PBMC; human PBMC source B): 60 µM | IC50 (human PBMC; human PBMC source C): 7 µM | IC50 (human PBMC; human PBMC source D): 34 µM

Reference: patent publication US7371779B2, “Synergistic compositions of N-acylhomoserine lactones and 4-quinolones” (The Secretary of State for Defense Science and Technology, priority 2001, dated 2008)
